“Also recorded” adds a separate entry of the source.

This is an account of results in US20240238293A1, “COMBINED PHARMACEUTICAL PREPARATION FOR TREATING A TERMINAL NON-SMALL CELL LUNG CANCER PATIENT WITH BRAIN METASTASIS” (DELTA-FLY PHARMA, INC., priority 2020, published 2024).

For series [1] the following is noted: Afatinib 40 mg/day alone; terminal (stage III to IV) NSCLC patients; 229 patients, phase III; cited from earlier work.
The nature of series [2]: Phase II clinical trial of concurrent low-dose Ubenimex and low-dose Afatinib: adverse effects. The note with it: within the combination (FIG. 2). It is filed as in vivo, human patients. The method, then: To patients with non-small cell lung cancer having a mutation in the epidermal growth factor receptor (EGFR) gene, 10 mg/day of Ubenimex in a single dose unit (free form) and 20 mg/day of Afatinib (Giotrif®, dimaleate) in a single dose unit were administered in concurrently once a day until no antitumor effects would be exerted. The therapeutic effects and reduction of adverse effects were then inspected. […]

Regarding `CN(C)CC=CC(=O)Nc1cc2c(Nc3ccc(F)c(Cl)c3)ncnc2cc1O[C@H]1CCOC1` [Afatinib, N-[4-[(3-chloro-4-fluorophenyl)amino]-7-[[(3S)-tetrahydro-3-furanyl]oxy]-6-quinazolinyl]-4-(dimethylamino)-2-butenamide], the “adverse effects, such as diarrhea and rashes” value in series [1] is on record as “likely to appear; also recorded: likely to be caused”. In addition, in series [2] (about 20 mg/day in a single dose unit), the “adverse effects of Afatinib at about 20 mg/day, such as diarrhea or rashes” value is “substantially no adverse effects”.

Take `CC(C)C[C@H](NC(=O)[C@@H](O)[C@H](N)Cc1ccccc1)C(=O)O` [Ubenimex, (2S)-2-[(2S,3R)-3-amino-2-hydroxy-4-phenylbutanoylamino]-4-methylpentanoic acid]: the “adverse effects of Ubenimex at about 10 mg/day” value in series [2] (about 10 mg/day in a single dose unit) is reported as “substantially no adverse effects”.
